Assays:
[1] = molecular target: human mu-opioid receptor (hMOP) (Homo sapiens (Human), UniProt P35372); format: binding
[2] = molecular target: human delta-opioid receptor (hDOP) (Homo sapiens (Human), UniProt P41143); assay: hDOP receptor binding assay (SPA, [3H]2-D-Ala-deltorphin II); conditions: concentration not given; neighbouring values @1μM
[3] = molecular target: human nociceptin/orphanin FQ peptide receptor (hNOP) (Homo sapiens (Human), UniProt P41146); format: binding

Row | Structure (SMILES) | hMOP % @1μM (given instead of Ki) [1] | DOP % [2] | hNOP % @1μM (given instead of Ki) [3]
1 | CCN(C)[C@]1(c2ccccc2)CC[C@]2(CC1)CN(CC(C)(C)C(N)=O)C(=O)N2 [SC_5064, CIS-3-[8-(Ethyl-methyl-amino)-2-oxo-8-phenyl-1,3-diazaspiro[4.5]decan-3-yl]-2,2-dimethyl-propionamide] | 3% @1μM | (DOP 20%) | 3% @1μM
2 | CCN(C)C1(c2ccccc2)CCC2(CC1)CN(CC(C)(C)C(N)=O)C(=O)N2C (stereo not drawn) [SC_5066, CIS-3-[8-(Ethyl-methyl-amino)-1-methyl-2-oxo-8-phenyl-1,3-diazaspiro[4.5]decan-3-yl]-2,2-dimethyl-propionamide] | 7% @1μM | (DOP 22%) | 0% @1μM

From patent US10793528B2 (priority 2016, dated 2020)
